Source: patent publication US20230141988A1, “PHARMACEUTICAL COMPOSITION FOR USE IN THE TREATMENT OF NEUROLOGICAL DISEASES” (Aclipse One Inc., priority 2020, published 2023)
Like-named read-outs stand apart in the source and are kept apart here.

Assays:
[1] = for AUC_%Extrap_obs: Mean, male C57BL/6J mice; for Brain concentration, Mean / Plasma concentration, Mean / CSF concentration / plasma concentration: male, C57BL/6J, mouse, in vivo, po, 25 mg/kg
Protocol: Male C57BL/6J mice were purchased from Si Bei Fu Laboratory Animal Technology Co. Ltd (Beijing, China). The animals were about 8 weeks old with body weights of 20-30 g on the dosing date. The animals were housed in a 12-hour light/12-hour dark cycle environment and had free access to food and water. All animals were fasted overnight and fed after 4 hours collection.
The formulation was freshly made prior to use. Preparation of formulation for oral dosing are as follows:
For Group 1 and 2, blood, CSF and brain samples were collected from 3 mice at the following time points.
Plasma samples: About 30 μL or 300 μL of blood samples were collected from each animal via dorsal metatarsal vein or heart. These blood samples were placed into the tubes containing K2EDTA. And centrifugation at 3000 g for 10 minutes in a 4° C. centrifuge. The completion time from collection was less than 30 min. The stabilizing agent of ascorbic acid at 200 mg/mL was added in a proportion of 10% in plasma. The plasma samples were stored in a freezer at −75±15° C. prior to analysis. The completion time from collection was less than 60 min.
Brain and CSF Samples: The animals were fully exsanguinated with a rising concentration of CO2 gas prior to CSF and brain collection.
For CSF collection, make an incision by scissors on the neck of the rats, and the foramen magnum is exposed to the sight of scientist. Use a syringe with a venoclysis needle to sample the CSF, the tip of the needle is insert into the membrane of foramen magnum about 1-2 mm, and then pull the stopcock a small length of the syringe to make a negative pressure, then the CSF fluids to the tube. Watch the fluid in the tube and pull the stopcock slowly, when the amount of the CSF is enough, stop and split the needle and the syringe to ensure there is no negative pressure in the tube. Then cut off the needle and collect the CSF fluid. If we could see the blood in the tube, stop immediately, split the needle and the syringe, and then cut off between the blood and CSF to ensure there is no blood in the CSF fluid. Then collect the CSF fluid. The stabilizing agent of ascorbic acid at 200 mg/mL was added in a proportion of 10% in CSF. The completion time from collection was less than 60 min.
For brain collection. Brain samples were collected at adopted time point, and washed 3 times with cold saline, then dried with clean gauze and put into the weighed tube, quick frozen in ice box and kept at −75±15° C. All brain samples were weighted and homogenized with phosphate buffered saline (PBS) by brain weight (g) to PBS volume (mL) ratio 1:3 before analysis. The stabilizing agent of ascorbic acid at 200 mg/mL was added in a proportion of 10% in Brain homogenate. The actual concentration was the detected value multiplied by the dilution factor. Brain samples were collected at designed time point, quickly homogenized and kept at −75±15° C. The completion time from collection was less than 60 min.
Calibration standard working solutions were prepared at concentrations of 0.2, 0.5, 1, 2, 5, 10, 50, 100, 500, 1000 ng/mL by serial dilution of the standard stock solution. These QC samples were prepared on the day of analysis in the same way as calibration standards.
Plasma: The desired serial concentrations of working solutions were achieved by diluting stock solution of analyte with 50% acetonitrile in water solution. 10 μL of working solutions (0.1, 0.2, 0.5, 1, 2, 5, 10, 50, 100, 500, 1000 ng/mL) were added to 10 μL of the blank C57BL/6J Mice plasma to achieve calibration standards of 0.1˜1000 ng/mL (0.1, 0.2, 0.5, 1, 2, 5, 10, 50, 100, 500, 1000 ng/mL) in a total volume of 20 μL.

[2] = plasma, fed male Cynomolgus Monkeys, PO 10 mg/kg, animal 168777C
Protocol: (§1) Three male Cynomolgus Monkeys were administrated a single oral dose at 10 mg/kg. The oral vehicle was 10% (w/v) HP-β-CD in water.
(§2) Male Cynomolgus Monkeys were purchased from Topgene Biotechnology. The animals were 2-5 years old with body weights of 2.0-5.0 kg on the dosing date. The animals were housed in a 12-hour light/12-hour dark cycle environment and had free access to food and water.
(§3) All animals for PO administration were fasted overnight prior to dosing and will be fed approximately 2 hours after dosing.
(§4) Three male Cynomolgus Monkeys were assigned to this study. […] The dosing regimens and formulation (vehicle) compositions are described in the following table below:
(§5) Animals were weighed prior to dose administration on the day of dosing for calculating the actual dose volume. The dosages were prepared as illustrated in the table below:
(§6) Blood samples were taken at the following times:
(§7) Whole blood samples were gently inverted several times to ensure anticoagulation then placed on wet ice prior to centrifugation. Within 30 minutes of collection, the samples were centrifuged at approximately 4,000×g (force) for 5 minutes at 2 to 8° C. to obtain plasma. The stabilizing agent, ascorbic acid at 200 mg/mL, was added in a proportion of 10% in plasma. The plasma samples were stored in a freezer at −75±15° C. prior to analysis. The completion time from collection was less than 60 min. The resultant plasma samples will be immediately separated divided into 2 aliquots (˜75 μL each) and transferred to cryogenic vial. Samples will be maintained on wet ice throughout processing, and stored in a freezer at −75±15° C. prior to analysis. Samples should be protected from ambient light (under sodium lamp).
(§8) Calibration standard working solutions were prepared at concentrations of 2, 5, 10, 20, 100, 500, 1000, 5000, 10000 ng/mL by serial dilution of the standard stock solution in 1:1 acetonitrile:water. Quality control working solutions at concentrations of 5, 10, 20, 500 and 8000 ng/mL were prepared by serial dilution of the standard stock solution in 1:1 acetonitrile:water. The QC samples were prepared on the day of analysis in the same way as calibration standards.
(§9) Samples were prepared with 5 μL of each calibration standard working solution (2, 5, 10, 20, 100, 500, 1000, 5000, 10000 ng/mL) added to 50 μL of the blank Cynomolgus Monkeys plasma to achieve calibration standards concentrations of 0.2, 0.5, 1, 2, 10, 50, 100, 500, 1000 ng/mL (relative to a 50-4, plasma aliquot). Quality Control (QC) samples at 0.5 ng/mL (low-1), 1 ng/mL (low-2), 2 ng/mL (low-3), 50 ng/mL (mid) and 800 ng/mL (high) for plasma were prepared independently for those used for the calibration curves.
(§10) Total volumes of 55 μL of standards, 55 μL of QC samples and 55 μL of unknown samples (50 μL of plasma with 5 μL of 1:1 acetonitrile:water) were added to 200 μL of acetonitrile containing IS to precipitate proteins. Then the samples were vortexed for 30 sec. […] All of the samples were processed on ice.
(§11) The LC-MS/MS system consisted of two Shimadzu LC-30AD pumps, a DGU-20A5R degasser, a Rack changer II and an AB Sciex Triple Quad 5500 LC/MS/MS mass spectrometer. Chromatographic separation was performed on Agilent ZORBAX XDB-Phenyl 5 μm (50×2.1 mm) at room temperature. The mobile phase was composed of A: 5% Acetonitrile/95% water (0.1% Formic acid); B: 95% Acetonitrile/5% water (0.1% Formic acid). The flow rate was 0.6 mL/min. The injection volume was 2 μL.
(§12) A multiple reaction monitoring (MRM) method was selected for quantitative analysis. […] The instrument parameters were set as follows: ion spray voltage: 5500 V; curtain gas: 40 psi; ion source gas 1: 50 psi; ion source gas 2: 50 psi; temperature: 450° C. The compound dependent parameters are listed as follows:
(§13) HPLC flow rate was set at 0.6 mL/min with the following conditions:

[3] = Oxidation in liquid solutions; assay type: physicochemical; settings: in the liquid solutions
in vivo = settings: male, cynomolgus monkey, po, 10 mg/kg, Plasma concentration, fed male Cynomolgus Monkeys
Protocol: as §1, §2, §3, §4, §5, §6, §7, §8, §9, §10, §11, §12, §13

CN1CCc2cccc3c2[C@@H]1Cc1ccc(O)c(O)c1-3
AUC_%Extrap_obs ([1]; CSF, last day (Day 4) of repeated oral dose 25 mg/kg): 3.18% | AUC_%Extrap_obs ([1]; brain, single oral dose 25 mg/kg): 18.5% | Brain concentration, Mean ([1]; 0.5 h): 90 ng/g | Plasma concentration, Mean ([1]; 0.5 h): 453 ng/mL | Brain concentration, Mean ([1]; 1 h): 36.3 ng/g | CSF concentration ([1]; 1 h): 3.06 ng/mL | Plasma concentration, Mean ([1]; 1 h): 153 ng/mL | Brain concentration, Mean ([1]; 2 h): 21.9 ng/g | Brain concentration, Mean ([1]; 3 h): 6.80 ng/g | Plasma concentration, Mean ([1]; 3 h): 48.2 ng/mL | CSF concentration ([1]; 4 h): 3.42 ng/mL | plasma concentration ([1]; 8 h): 0.599 ng/mL | plasma concentration ([1]; 12 h): 0.150 ng/mL | AUClast/D [2]: 4.26 mg·h/mL | oxidation [3]: significant oxidation | concentration at 0.5 h (in vivo; animal 168777C): 4.15 ng/mL | concentration at 0.5 h (in vivo; animal 168779C): 1.26 ng/mL | concentration at 0.5 h (in vivo; animal 169939C): 0.975 ng/mL | concentration at 1 h (in vivo; 1 h, animal 169939C): 2.81 ng/mL | concentration at 2 h (in vivo; animal 168777C): 6.27 ng/mL | concentration at 2 h (in vivo; animal 168779C): 6.27 ng/mL | concentration at 4 h (in vivo; animal 168779C): 8.04 ng/mL | concentration at 4 h (in vivo; animal 169939C): 5.91 ng/mL | concentration at 8 h (in vivo; 8 h, animal 168777C): 1.13 ng/mL
